Reference: US10399980B2, “Purinones as ubiquitin-specific protease 1 inhibitors” (FORMA Therapeutics, Inc., priority 2015, dated 2019)

Each compound was assayed against USP1, construct USP1 (1-785, GG670, 671AA)/UAF1 (1-677)-Flag (Homo sapiens (Human), UniProt O94782, G670A/G671A) (assay: Ubiquitin-Rhodamine 110 assay for USP1 activity, follow-up IC50 studies). Settings: USP1/UAF1, 30 min preincubation.
Type: biochemical
Experimental: Example 53: Ubitquin-Rhodamine 110 Assay for USP1 Activity
Nanoliter quantities of either an 8-point or 10-point, 3-fold serial dilution in DMSO was pre-dispensed into assay plates (Perkin Elmer, ProxiPlate-384 F Plus, #6008269) for a final test concentration range of either 25 μM to 11 nM or 25 μM to 1.3 nM, respectively. The final concentration of the enzyme (USP1, construct USP1 (1-785, GG670, 671AA)/UAF1 (1-677)-Flag; Viva) in the assay was 25 pM. Final substrate (Ub-Rh110; Ubiquitin-Rhodamine 110, R&D Systems #U-555) concentration was 25 nM with [Ub-Rh110]<<Km. […] Plates were incubated stacked for 20 minutes at room temperature before 5 μL of stop solution (final concentration of 10 mM citric acid in assay buffer (Sigma, #251275-500G)). Fluorescence was read on the Envision (Excitation at 485 nm and Emission at 535 nm; Perkin Elmer) or on the PheraSTAR (Excitation at 485 nm and Emission at 535 nm; BMG Labtech).
For both assay formats data were reported as percent inhibition compared with control wells based on the following equation: % inh=[1−((FLU−AveLow)/(AveHigh−AveLow))]×100 where FLU=measured Fluorescence, AveLow=average Fluorescence of no enzyme control (n=16), and AveHigh=average Fluorescence of DMSO control (n=16). IC50 values were determined by curve fitting of the standard 4 parameter logistic fitting algorithm included in the Activity Base software package: IDBS XE Designer Model205. Data is fitted using the Levenburg Marquardt algorithm.

USP1, construct USP1 (1-785, GG670, 671AA)/UAF1 (1-677)-Flag, sequence (O94782 whole entry G670A/G671A): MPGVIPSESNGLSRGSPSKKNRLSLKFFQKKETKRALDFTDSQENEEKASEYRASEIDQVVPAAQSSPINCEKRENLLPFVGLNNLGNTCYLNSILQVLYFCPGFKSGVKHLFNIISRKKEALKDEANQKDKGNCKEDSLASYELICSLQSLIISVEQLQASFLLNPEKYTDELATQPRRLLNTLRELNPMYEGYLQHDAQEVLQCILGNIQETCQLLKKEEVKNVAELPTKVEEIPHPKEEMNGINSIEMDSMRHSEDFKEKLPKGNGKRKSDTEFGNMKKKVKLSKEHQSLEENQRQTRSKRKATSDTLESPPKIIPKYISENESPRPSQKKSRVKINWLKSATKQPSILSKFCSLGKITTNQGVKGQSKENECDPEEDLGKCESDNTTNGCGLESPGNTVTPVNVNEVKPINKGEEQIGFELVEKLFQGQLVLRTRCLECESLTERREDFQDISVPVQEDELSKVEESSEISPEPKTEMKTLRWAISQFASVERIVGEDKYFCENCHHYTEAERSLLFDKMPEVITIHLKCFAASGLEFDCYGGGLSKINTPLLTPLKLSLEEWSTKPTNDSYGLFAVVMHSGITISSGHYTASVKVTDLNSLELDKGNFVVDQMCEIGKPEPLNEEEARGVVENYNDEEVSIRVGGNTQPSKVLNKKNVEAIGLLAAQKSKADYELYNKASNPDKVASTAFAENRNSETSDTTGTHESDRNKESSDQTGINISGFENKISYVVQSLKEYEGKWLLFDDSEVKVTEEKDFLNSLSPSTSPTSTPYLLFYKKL
USP1, construct USP1 (1-785, GG670, 671AA)/UAF1 (1-677)-Flag, sequence (Q8TAF3 whole entry partner): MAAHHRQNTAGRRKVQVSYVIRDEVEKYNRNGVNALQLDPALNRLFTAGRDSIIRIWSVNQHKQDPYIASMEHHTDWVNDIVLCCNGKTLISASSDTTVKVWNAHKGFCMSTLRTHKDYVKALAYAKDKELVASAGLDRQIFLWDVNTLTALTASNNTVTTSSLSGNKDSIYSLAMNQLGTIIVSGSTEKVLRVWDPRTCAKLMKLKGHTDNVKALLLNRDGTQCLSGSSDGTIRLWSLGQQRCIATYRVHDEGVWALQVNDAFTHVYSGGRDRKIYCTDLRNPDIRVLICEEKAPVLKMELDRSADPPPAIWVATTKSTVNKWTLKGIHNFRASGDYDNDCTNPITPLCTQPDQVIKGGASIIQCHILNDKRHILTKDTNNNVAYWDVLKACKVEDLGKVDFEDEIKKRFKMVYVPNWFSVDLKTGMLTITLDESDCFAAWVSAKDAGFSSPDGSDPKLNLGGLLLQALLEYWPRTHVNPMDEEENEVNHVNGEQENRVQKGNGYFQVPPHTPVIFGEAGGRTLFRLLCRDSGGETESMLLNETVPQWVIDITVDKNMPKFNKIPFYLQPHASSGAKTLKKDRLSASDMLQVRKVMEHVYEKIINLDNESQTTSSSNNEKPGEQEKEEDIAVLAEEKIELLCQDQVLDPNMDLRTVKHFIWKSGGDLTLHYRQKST

SMILES	IC50 [nM]
Cn1cc(C(F)(F)F)nc1-c1ccc(Cn2c(=O)n(C)c3cnc(-c4ccccc4C4CC4)nc32)cc1 [I-70, 2-(2-cyclopropylphenyl)-7-methyl-9-(4-(1-methyl-4-(trifluoromethyl)-1H-imidazol-2-yl)benzyl)-7,9-dihydro-8H-purin-8-one]	< 50
Cc1cc(C)n([C@H]2CC[C@@H](Cn3c(=O)n(C)c4cnc(-c5ccccc5C(C)C)nc43)CC2)n1 [I-111, 9-(((1s,4s)-4-(3,5-dimethyl-1H-pyrazol-1-yl)cyclohexyl)methyl)-2-(2-isopropylphenyl)-7-methyl-7,9-dihydro-8H-purin-8-one]	50 to 200
Cc1cc(C)n([C@H]2CC[C@H](Cn3c(=O)[nH]c4cnc(-c5ccccc5C(C)C)nc43)CC2)n1 [I-213, 9-(((1r,4r)-4-(3,5-dimethyl-1H-pyrazol-1-yl)cyclohexyl)methyl)-2-(2-isopropylphenyl)-7,9-dihydro-8H-purin-8-one]	200 to 2000
